Data taken from patent publication US20170304386A1, “METHOD FOR INHIBITING SURVIVAL, TUMORIGENESIS AND METASTASIS OF CANCER CELLS AND/OR CANCER STEM CELLS” (priority 2014, published 2017).

Experiments:
[1] = test system: culture-enriched TICs (SPH) of HT29 and ALDH+ cells isolated from HCW primary liver metastasis cancer cells and fresh cancer cells; assay: TUNEL assay of TICs cultured in spheroid (suspension) condition; type: cell-based, human; details: spheroid condition 24 hours; S3I-201 50 μM
Procedure: FIGS. 8a-8f show the suspension survival ability determines tumourigenicity and corresponds to clinical tumour staging and survival. […] FIGS. 8b and 8c show the culture-enriched TICs (SPH) of HT29 and ALDH^+ cells isolated from HCW primary liver metastasis cancer cells and fresh cancer cells were cultured in spheroid condition for 24 hours with treatment of STAT3 inhibitor (S3I-201, 50 μM) or 1:25 dilution of the 0.25 mg/ml anti-Col XVII antibody, followed by TUNEL assay. (Ab-1, Abcam; Ab-2, Pierce). […] FIG. 8e (top), representative pictures of positive staining of colorectal tumour tissues (different stages) are shown, FIG. 8e (bottom), quantification and the correlation between protein expression and tumour stages was subsequently determined. The results are expressed as percentage of DAB positive cells and every single plot represents a patient. The median is shown as a single black line. […] The expression of pS727STAT≧40% or Col XVII 50% was regarded as positive. Asterisks indicate significant differences determined by Fisher's exact test, one-way ANOVA, and log-rank test. […]
Detection of apoptosis was performed (Roche Molecular Biochemicals, Indianapolis, Ind.). […] Immunofluorescence is observed with fluorescence microscope.

enriched TICs (HT29) = assay: Tumourigenicity of enriched TICs (xenograft transplantation); type: in vivo, athymic nude mice; details: TICs directly treated with S3I-201 50 μM, or S3I-201 5 mg/kg intravenously post injection of TICs
Procedure: FIGS. 8a-8f show the suspension survival ability determines tumourigenicity and corresponds to clinical tumour staging and survival. […] FIGS. 8b and 8c show the culture-enriched TICs (SPH) of HT29 and ALDH^+ cells isolated from HCW primary liver metastasis cancer cells and fresh cancer cells were cultured in spheroid condition for 24 hours with treatment of STAT3 inhibitor (S3I-201, 50 μM) or 1:25 dilution of the 0.25 mg/ml anti-Col XVII antibody, followed by TUNEL assay. (Ab-1, Abcam; Ab-2, Pierce). […] FIG. 8e (top), representative pictures of positive staining of colorectal tumour tissues (different stages) are shown, FIG. 8e (bottom), quantification and the correlation between protein expression and tumour stages was subsequently determined. The results are expressed as percentage of DAB positive cells and every single plot represents a patient. The median is shown as a single black line. […] The expression of pS727STAT≧40% or Col XVII 50% was regarded as positive. Asterisks indicate significant differences determined by Fisher's exact test, one-way ANOVA, and log-rank test.
The protocols were approved by the Institutional Animal Committee of Taipei Veterans General Hospital. […] Tumour cells were injected subcutaneously (s.c.) and tumour growth was monitored every week for up to 3 months. […]

## Cc1ccc(S(=O)(=O)OCC(=O)Nc2ccc(C(=O)O)c(O)c2)cc1 [S3I-201]
[1]
  killing of TICs in suspension culture (TUNEL assay): killed TICs
Enriched TICs (HT29)
  tumour initiation: inhibited tumour initiation
